From patent US11207312B2, “Metallo-beta-lactamase inhibitors and methods of use thereof” (priority 2017, dated 2021)

Columns and labels:
NDM-1 = NDM-1 (Klebsiella pneumoniae, UniProt C7C422); experiment: biochemical; format: biochemical; details: CCF2-FA fluorescence assay, 2 hours at 25° C.
Summary of the method: (§1)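 In pH 7 phosphate buffer (100 mM) with 10 μM ZnSO4 and 0.005% Tween-20, CCF2-FA hydrolysis (1.25 μM) by 1 pM NDM-1, 2 pM IMP-1 or 30 pM VIM-1 was run 2 h at 25° C with inhibitor from 20 to 0.00063 μM. Ex 405/em 460 nm signal fitted to a 4-parameter curve for IC50.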

IMP-1 = IMP-1 (Serratia marcescens, UniProt P52699); experiment: biochemical; details: CCF2-FA fluorescence assay, 2 hours at 25° C.; read-out: IMP1 IC50
Chain of IMP-1 (P52699 whole entry, looked up, species assumed): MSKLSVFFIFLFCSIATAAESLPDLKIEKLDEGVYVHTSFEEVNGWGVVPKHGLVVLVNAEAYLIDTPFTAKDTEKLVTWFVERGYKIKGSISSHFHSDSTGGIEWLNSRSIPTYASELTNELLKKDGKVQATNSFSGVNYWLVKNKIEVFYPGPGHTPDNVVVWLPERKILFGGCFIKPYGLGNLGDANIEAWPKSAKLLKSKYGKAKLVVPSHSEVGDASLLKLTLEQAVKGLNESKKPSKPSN
Summary of the method: as §1

VIM-1 = VIM-1 (Pseudomonas aeruginosa (strain ATCC 15692 / DSM 22644 / CIP 104116 / JCM 14847 / LMG 12228 / 1C / PRS 101 / PAO1), UniProt A0A0F7KYQ8); experiment: biochemical; details: CCF2-FA fluorescence assay, 2 hours at 25° C.; read-out: VIM1 IC50
Summary of the method: as §1

VIM-2 = VIM-2 (Escherichia coli, UniProt Q5U7L7); experiment: biochemical; details: CCF2-FA fluorescence assay; read-out: VIM2 IC50
[1] = tested on: Escherichia coli expressing NDM-1 (CLB30016); format: cell-based; details: with imipenem 1 μg/ml; 95% inhibition of bacterial growth
Summary of the method: (§2)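 Clinical MBL-producing strains were grown overnight at 35 °C on blood agar, suspended in saline, diluted 1:100 into 1.1× CAMHB and exposed to test compound with imipenem at 1 μg/ml. After 22–24 h at 35 °C, absorbance gave MITC95: lowest compound concentration inhibiting 95% of growth.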

[2] = tested on: Klebsiella pneumoniae expressing VIM-1 (IHMA599644); format: cell-based; details: with imipenem 1 μg/ml; 95% inhibition of bacterial growth
Summary of the method: as §2

[3] = tested on: Serratia marcescens expressing IMP-1 (CL5741); format: cell-based; details: with imipenem 1 μg/ml; 95% inhibition of bacterial growth
Summary of the method: as §2

[4] = tested on: P. aeruginosa MB9798 (efflux+, IMP-1 plasmid); details: for MB9798 MITC95 P. aeruginosa uM Efflux WT: efflux + (MB9798) strain, imipenem at 2 μg/mL, in the presence of a class A, C, D serine β-lactamase inhibitor closely related to relebactam; for Efflux ratio: fold difference between efflux+ (MB9798) and efflux− (MB9799) strains
Summary of the method: (§3)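 Isogenic P. aeruginosa PAO1 strains (efflux+ and multiple-efflux-pump-disrupted) carrying plasmid IMP-1, with inducible AmpC, tested by broth microdilution. Imipenem and/or ceftazidime fixed, usually at CLSI breakpoint, plus fixed class A/C β-lactamase inhibitor; titrated MBL inhibitor concentration restoring susceptibility recorded and compared between strains as efflux fold difference.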

[5] = tested on: P. aeruginosa MB9799 (efflux-, IMP-1 plasmid); format: cell-based, Pseudomonas aeruginosa; details: efflux − (MB9799) strain; imipenem at 2 μg/mL; in the presence of a class A, C, D serine β-lactamase inhibitor closely related to relebactam
Summary of the method: as §3

Chain of NDM-1 (C7C422 whole entry, looked up, species assumed): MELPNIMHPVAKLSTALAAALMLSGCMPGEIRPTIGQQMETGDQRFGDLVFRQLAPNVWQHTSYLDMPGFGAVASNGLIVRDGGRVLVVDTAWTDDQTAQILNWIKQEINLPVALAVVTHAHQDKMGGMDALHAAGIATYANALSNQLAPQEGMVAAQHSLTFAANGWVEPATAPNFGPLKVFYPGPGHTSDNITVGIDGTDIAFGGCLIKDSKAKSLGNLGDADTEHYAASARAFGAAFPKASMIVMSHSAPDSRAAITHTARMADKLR

SMILES	IC50 (NDM-1) [nM]	IC50 (IMP-1) [nM]	IC50 (VIM-1) [nM]	IC50 (VIM-2) [nM]	CLB30016 E. coli MITC95 NDM [1] [µM]	IHMA599644 K. pneumoniae MITC95 VIM [2] [µM]	CL5741 S. marcescens MITC95 IMP [3] [µM]	MB9798 MITC95 P. aeruginosa uM Efflux WT [4] [µM]	Efflux ratio [4]	MB9799 MITC95 P. aeruginosa uM Efflux Mutant [5] [µM]
NC[C@@H](O)CNS(=O)(=O)c1ccc(N2CC[C@@H](N)[C@@H](F)C2)c(-c2nn[nH]n2)c1S(N)(=O)=O [Example 207, N1-((R)-3-amino-2-hydroxypropyl)-4-((3S,4R)-4-amino-3-fluoropiperidin-1-yl)-3-(2H-tetrazol-5-yl)benzene-1,2-disulfonamide]	15	25.2	0.86	25.6	0.39	0.78	0.20	1.56	1.00	1.56
NC[C@@H](O)CNS(=O)(=O)c1ccc(N2CCC(C(N)=O)C2)c(-c2nn[nH]n2)c1S(N)(=O)=O (stereo partly drawn) [Example 118, 1-(4-(N—((R)-3-amino-2-hydroxypropyl)sulfamoyl)-3-sulfamoyl-2-(2H-tetrazol-5-yl)phenyl)pyrrolidine-3-carboxamide]	1.55	1.25	1.2	2.44	1.56	3.13	1.56	1.56	1.00	1.56
NCC1CCN(c2ccc(S(=O)(=O)NC[C@H](O)CN)c(S(N)(=O)=O)c2-c2nnn[nH]2)CC1 [Example 34]	2.05	4.07	0.18	3.49	0.39	0.39	0.39	0.39	2.00	0.20
NS(=O)(=O)c1c(S(=O)(=O)N[C@@H]2CCNC2)ccc(NC2CCOCC2)c1-c1nnn[nH]1 [Example 66, N1-[(3R)-pyrrolidin-3-yl]-4-(tetrahydro-2H-pyran-4-ylamino)-3-(1H-tetrazol-5-yl)benzene-1,2-disulfonamide]	0.62	4.48	1.76	3.7	6.25	6.25	3.13	25.00	15.99	1.56
NC[C@@H](O)CNS(=O)(=O)c1ccc(N2CCC[C@H](CN)C2)c(-c2nnn[nH]2)c1S(N)(=O)=O [Example 39, N1-((R)-3-amino-2-hydroxypropyl)-4-((R)-3-(aminomethyl)piperidin-1-yl)-3-(1H-tetrazol-5-yl)benzene-1,2-disulfonamide]	50.4	44.6	1.71	11.6	1.56	1.56	0.78	3.13	2.00	1.56
NOC1CCCN(c2ccc(S(=O)(=O)N[C@@H]3CCNC3)c(S(N)(=O)=O)c2-c2nn[nH]n2)C1=O (some centres unmarked) [Example 150]	0.62	17.1	0.38	1.52	1.56	12.50	6.25	12.50	4.00	3.13
CS(=O)(=O)CCN1CCN(c2ccc(S(=O)(=O)NC[C@H](O)CN)c(S(N)(=O)=O)c2-c2nn[nH]n2)CC1 [Example 117, (R)—N1-(3-amino-2-hydroxypropyl)-4-(4-(2-(methylsulfonyl)ethyl)piperazin-1-yl)-3-(2H-tetrazol-5-yl)benzene-1,2-disulfonamide]	0.94	0.55	2.58	2.28	3.13	6.25	0.78	12.50	4.00	3.13
CC1CC(CN)CCN1c1ccc(S(=O)(=O)NC[C@H](O)CN)c(S(N)(=O)=O)c1-c1nn[nH]n1 (stereo partly drawn) [Example 4, N1-((R)-3-amino-2-hydroxypropyl)-4-(4-(aminomethyl)-2-methylpiperidin-1-yl)-3-(2H-tetrazol-5-yl)benzene-1,2-disulfonamide]	2.17	9.4	0.18	2.4	3.13	3.13	1.56	1.56	2.00	0.78
NCCNS(=O)(=O)C1CCN(c2ccc(S(=O)(=O)NC[C@H](O)CN)c(S(N)(=O)=O)c2-c2nn[nH]n2)CC1 [Example 131, (R)-N1-(3-amino-2-hydroxypropyl)-4-(4-(N-(2-aminoethyl)sulfamoyl)piperidin-1-yl)-3-(2H-tetrazol-5-yl)benzene-1,2-disulfonamide]	0.79	0.87	0.11	1.05	0.39	1.56	0.78	0.78	1.00	0.78
NC[C@@H](O)CNS(=O)(=O)c1ccc(N2CCC(F)(CO)CC2)c(-c2nn[nH]n2)c1S(N)(=O)=O [Example 22, (R)-N^1-(3-amino-2-hydroxypropyl)-4-(4-fluoro-4-(hydroxymethyl)piperidin-1-yl)-3-(2H-tetrazol-5-yl)benzene-1,2-disulfonamide]	0.45	0.7	0.35	0.79	3.13	6.25	1.56	1.56	1.00	1.56
NCC1=CCN(c2ccc(S(=O)(=O)NC[C@H](O)CN)c(S(N)(=O)=O)c2-c2nn[nH]n2)C1.O=C(O)C(F)(F)F.O=C(O)C(F)(F)F [Example 170]	11.4	15.3	5.64	42.9	1.56	1.56	1.56	6.25	4.00	1.56
